Measurements published in patent US6903218B2, “Sulfonamide substituted chroman derivatives” (Bayer Pharmaceuticals Corporation, priority 1997, dated 2005).

Row | SMILES | melting point
1 | CC(C)c1ccc(NS(=O)(=O)c2ccc3c(c2)CCC(CNC[C@H](O)c2cccnc2)O3)cc1 (stereo in doubt) (hydrate or solvate) | 104 to 106 °C
2 | Nc1ccc([C@@H](O)CNC[C@H]2CCc3cc(NS(=O)(=O)c4ccc(-n5nnn(CCCC6CCCCC6)c5=O)cc4)ccc3O2)cn1 | 94 to 95 °C
3 | O=c1n(CCCC2CCCC2)ccn1-c1ccc(NS(=O)(=O)c2ccc3c(c2)CCC(CNC[C@H](O)c2cccnc2)O3)cc1 (stereo in doubt) | 90 to 92 °C
4 | O=c1n(CCCC2CCCC2)nnn1-c1ccc(NS(=O)(=O)c2ccc3c(c2)CCC(CN(C[C@H](O)c2cccc(Cl)c2)C[C@H](O)c2cccc(Cl)c2)O3)cc1 (stereo partly shown) (hydrate or solvate) | 110 to 115 °C (dec.)
5 | Nc1ccc([C@@H](O)CNCC2CCc3cc(S(=O)(=O)Nc4ccc(Cl)cc4)ccc3O2)cn1 (stereo in doubt) | 95 °C (dec.)
6 | O=c1n(CCCC2CCCC2)nnn1-c1ccc(NS(=O)(=O)c2ccc3c(c2)CCC(CNC[C@H](O)c2cccnc2)O3)cc1 (stereo partly shown) (hydrate or solvate) | 93 to 95 °C
7 | Nc1ccc([C@@H](O)CNC[C@@H]2CCc3cc(S(=O)(=O)Nc4ccc(-n5nnn(CCCC6CCCC6)c5=O)cc4)ccc3O2)cn1 | 99.3 to 99.7 °C
